Laboratory results from patent US7737173B2, “Indole-3-carboxylic acid amide, ester, thioamide and thiol ester compounds bearing aryl or heteroaryl groups having sphingosine-1-phosphate (S1P) receptor antagonist biological activity” (Allergan, Inc., priority 2006, dated 2010).
Like-named read-outs stand apart in the source and are kept apart here.

Experiments:
human S1P3 receptor = molecular target: T1, human S1P3 receptor (Homo sapiens, UniProt Q99500); experiment: FLIPR Ca+2 assay: ability to activate or block activation of the human S1P3 receptor in T24 cells; type: cell-based
T1 construct: expressed in transfected cells
T1 sequence (Q99500 whole entry): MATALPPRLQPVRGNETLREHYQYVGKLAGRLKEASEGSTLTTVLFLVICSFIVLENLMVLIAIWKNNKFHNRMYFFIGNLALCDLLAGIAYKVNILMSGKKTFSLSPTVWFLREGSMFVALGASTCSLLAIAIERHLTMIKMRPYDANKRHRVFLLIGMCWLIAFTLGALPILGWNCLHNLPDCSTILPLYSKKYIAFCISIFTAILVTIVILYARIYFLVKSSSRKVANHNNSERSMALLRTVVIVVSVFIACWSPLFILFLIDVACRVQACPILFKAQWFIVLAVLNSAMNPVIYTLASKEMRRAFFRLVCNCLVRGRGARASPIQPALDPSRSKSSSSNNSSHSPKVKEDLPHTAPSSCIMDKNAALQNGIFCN
Description: Compounds were assessed for their ability to activate or block activation of the human S1P3 receptor in T24 cells stably expressing the human S1P3 receptor. Ten thousand cells/well were plated into 384-well poly-D-lysine coated plates one day prior to use. The growth media for the S1P3 receptor expressing cell line was McCoy's 5A medium supplemented with 10% charcoal-treated fetal bovine serum (FBS), 1% antibiotic-antimycotic and 400 μg/ml geneticin. On the day of the experiment, the cells were washed twice with Hank's Balanced Salt Solution supplemented with 20 mM HEPES (HBSS/Hepes buffer). The cells were then dye loaded with 2 uM Fluo-4 diluted in the HBSS/Hepes buffer with 1.25 mM Probenecid and incubated at 37° C. for 40 minutes. Extracellular dye was removed by washing the cell plates four times prior to placing the plates in the FLIPR (Fluorometric Imaging Plate Reader, Molecular Devices). Ligands were diluted in HBSS/Hepes buffer and prepared in 384-well microplates. The positive control, Sphingosine-1-Phosphate (SIP), was diluted in HBSS/Hepes buffer with 4 mg/ml fatty acid free bovine serum albumin. The FLIPR transferred 12.5 μl from the ligand microplate to the cell plate and took fluorescent measurements for 75 seconds, taking readings every second, and then for 2.5 minutes, taking readings every 10 seconds. Drugs were tested over the concentration range of 0.61 nM to 10,000 nM. Data for Ca^+2 responses were obtained in arbitrary fluorescence units and not translated into Ca^+2 concentrations. IC50 values were determined through a […] analysis using the Levenburg Marquardt algorithm.

perfused porcine eyes = conditions: by altering paracellular permeability, IOVS 45, 2263, 2004; cited from earlier work
[1] = T24 cells stably expressing human S1P3, antagonist activity, tested 0.61 nM to 10,000 nM, read-out: S1P3 IC50
[2] = T-24, T24 cells stably expressing human S1P3, antagonist activity, value in parentheses, read-out: S1P3 (% eff.)

**Q.** What does the source list for `Cc1c(C(=O)NCc2cc(F)cc(F)c2)c2cc(O)ccc2n1Cc1ccccc1` [Compound 3, 1-Benzyl-5-hydroxy-2-methyl-1H-indole-3-carboxylic Acid, 3,5-Difluorobenzylamide]?
**A.** IC50 (human S1P3 receptor): 510 nM; Emax (human S1P3 receptor; T-24, read-out: S1P3 (% eff.)): 53%

**Q.** What does the source list for `CCc1c(C(=O)NCc2cccc(OC)c2)c2cc(O)ccc2n1Cc1ccccc1` [Compound 26, 1-Benzyl-2-ethyl-5-hydroxy-1H-indole-3-carboxylic Acid, 3-Methoxy-benzylamide]?
**A.** IC50 (human S1P3 receptor): 1900 nM; Emax (human S1P3 receptor; T-24, read-out: S1P3 (% eff.)): 97%

**Q.** For `Cc1c(C(=O)NCc2ccc(F)c(F)c2)c2cc(O)ccc2n1-c1ccccn1` [Compound 30, 5-Hydroxy-2-methyl-1-pyridin-2-yl-1H-indole-3-carboxylic Acid 3,4-Difluoro-benzylamide], which IC50 (human S1P3 receptor; [1]) is on record?
**A.** 1500 nM

**Q.** And the Emax (human S1P3 receptor; [2])?
**A.** 23%

**Q.** Which IC50 (human S1P3 receptor) does the source give for `Cc1ccc(CNC(=O)c2c(C)n(Cc3cccs3)c3ccc(O)cc23)cc1` [Compound 20, 5-Hydroxy-2-methyl-1-thiophen-2-ylmethyl-1H-indole-3-carboxylic Acid, 4-Methylbenzylamide] here?
**A.** 2500 nM

**Q.** What about the Emax (human S1P3 receptor; T-24, read-out: S1P3 (% eff.)) of the same compound?
**A.** 71%

**Q.** Which “decrease of outflow facility” value (perfused porcine eyes) does the source give for `CCCCCCCCCCCCC/C=C/[C@@H](O)[C@@H](N)COP(=O)(O)O` [Compound S1P, Sphingosine-1-Phosphate] here?
**A.** > 30%

**Q.** Which results are given for `Cc1c(C(=O)NCc2ccc(F)c(F)c2)c2cc(O)ccc2n1Cc1cccs1` [Compound 4, 5-Hydroxy-2-methyl-1-thiophen-2-ylmethyl-1H-indole-3-carboxylic Acid, 3,4-Difluorobenzylamide]?
**A.** IC50 (human S1P3 receptor): 1700 nM; Emax (human S1P3 receptor; T-24, read-out: S1P3 (% eff.)): 66%

**Q.** What does the source list for `Cc1c(C(=O)NCc2ccc(F)c(F)c2)c2cc(O)ccc2n1Cc1ccco1` [Compound 9, 1-Furan-2-ylmethyl-5-hydroxy-2-methyl-1H-indole-3-carboxylic Acid, 3,4-Difluorobenzylamide]?
**A.** IC50 (human S1P3 receptor): 2900 nM; Emax (human S1P3 receptor; T-24, read-out: S1P3 (% eff.)): 97%

**Q.** Which IC50 (human S1P3 receptor) does the source give for `COc1cccc(CNC(=O)c2c(C)n(Cc3cccs3)c3ccc(O)cc23)c1` [Compound 17, 5-Hydroxy-2-methyl-1-thiophen-2-ylmethyl-1H-indole-3-carboxylic Acid, 3-Methoxybenzylamide] here?
**A.** 910 nM

**Q.** And the Emax (human S1P3 receptor; T-24, read-out: S1P3 (% eff.))?
**A.** 33%

**Q.** Which IC50 (human S1P3 receptor; [1]) does the source give for `Cc1c(C(=O)NCc2ccc(F)c(F)c2)c2cc(O)ccc2n1-c1ccccc1` [Compound 29, 5-Hydroxy-2-methyl-1-phenyl-1H-indole-3-carboxylic Acid 3,4-Difluoro-benzylamide] here?
**A.** 9700 nM

**Q.** What about the Emax (human S1P3 receptor; [2]) of the same compound?
**A.** 76%

**Q.** What does the source list for `Cc1c(C(=O)NCc2ccc(F)cc2)c2cc(O)ccc2n1Cc1cccs1` [Compound 19, 5-Hydroxy-2-methyl-1-thiophen-2-ylmethyl-1H-indole-3-carboxylic Acid, 4-Fluorobenzylamide]?
**A.** IC50 (human S1P3 receptor): 2700 nM; Emax (human S1P3 receptor; T-24, read-out: S1P3 (% eff.)): 72%

**Q.** With `Cc1c(C(=O)NCc2cccc(Cl)c2)c2cc(O)ccc2n1Cc1cccs1` [Compound 21, 5-Hydroxy-2-methyl-1-thiophen-2-ylmethyl-1H-indole-3-carboxylic Acid, 3-Chlorobenzylamide] as the compound, how does the IC50 (human S1P3 receptor) read?
**A.** 1200 nM

**Q.** And the Emax (human S1P3 receptor; T-24, read-out: S1P3 (% eff.))?
**A.** 38%

**Q.** What does the source list for `CCCCn1c(C)c(C(=O)NCc2cccc(OC)c2)c2cc(O)ccc21` [Compound 18, 1-Butyl-5-hydroxy-2-methyl-1H-indole-3-carboxylic Acid, 3-Methoxy-benzylamide]?
**A.** IC50 (human S1P3 receptor): 5100 nM; Emax (human S1P3 receptor; T-24, read-out: S1P3 (% eff.)): 42%

**Q.** With `COc1cccc(CNC(=O)c2c(C(C)C)n(Cc3ccccc3)c3ccc(O)cc23)c1` [Compound 34, 1-Benzyl-5-hydroxy-2-isopropyl-1H-indole-3-carboxylic Acid, 3-methoxybenzylamide] as the compound, how does the IC50 (human S1P3 receptor) read?
**A.** 410 nM

**Q.** And the Emax (human S1P3 receptor; T-24, read-out: S1P3 (% eff.))?
**A.** 98%

**Q.** For `O=C(NCc1cc(F)cc(F)c1)c1c(-c2ccccc2)n(Cc2ccccc2)c2ccc(O)cc12` [Compound 48, 1-Benzyl-5-hydroxy-2-phenyl-1H-indole-3-carboxylic Acid, 3,5-Difluoro-benzylamide], which IC50 (human S1P3 receptor) is on record?
**A.** 880 nM

**Q.** And the Emax (human S1P3 receptor; T-24, read-out: S1P3 (% eff.))?
**A.** 98%

**Q.** What does the source list for `Cc1c(C(=O)NCc2ccc(F)c(F)c2)c2cc(O)ccc2n1Cc1ccccc1` [Compound 13, 1-Benzyl-5-hydroxy-2-methyl-1H-indole-3-carboxylic Acid, 3,4-Difluoro-benzylamide]?
**A.** IC50 (human S1P3 receptor): 1500 nM; Emax (human S1P3 receptor; T-24, read-out: S1P3 (% eff.)): 84%

**Q.** Which IC50 (human S1P3 receptor) does the source give for `Cc1c(C(=O)NCc2ccc(Cl)cc2)c2cc(O)ccc2n1Cc1cccs1` [Compound 22, 5-Hydroxy-2-methyl-1-thiophen-2-ylmethyl-1H-indole-3-carboxylic Acid, 4-Chlorobenzylamide] here?
**A.** 2500 nM

**Q.** And the Emax (human S1P3 receptor; T-24, read-out: S1P3 (% eff.))?
**A.** 83%

**Q.** For `Cc1c(C(=O)NCc2cc(F)cc(F)c2)c2cc(O)ccc2n1Cc1cccs1` [Compound 11, 5-Hydroxy-2-methyl-1-thiophen-2-ylmethyl-1H-indole-3-carboxylic Acid, 3,5-Difluorobenzylamide], which IC50 (human S1P3 receptor) is on record?
**A.** 1800 nM

**Q.** What about the Emax (human S1P3 receptor; T-24, read-out: S1P3 (% eff.)) of the same compound?
**A.** 67%

**Q.** For `CC(C)c1c(C(=O)NCc2ccc(F)c(F)c2)c2cc(O)ccc2n1Cc1ccccc1` [Compound 28, 1-Benzyl-5-hydroxy-2-isopropyl-1H-indole-3-carboxylic Acid, 3,4-Difluorobenzamide], which IC50 (human S1P3 receptor) is on record?
**A.** 55 nM

**Q.** And the Emax (human S1P3 receptor; T-24, read-out: S1P3 (% eff.))?
**A.** 98%

**Q.** What does the source list for `CCCCn1c(C)c(C(=O)NCc2cc(F)cc(F)c2)c2cc(O)ccc21` [Compound 6, 1-Butyl-5-hydroxy-2-methyl-1H-indole-3-carboxylic Acid, 3,5-Difluoro-benzylamide]?
**A.** IC50 (human S1P3 receptor): 2500 nM; Emax (human S1P3 receptor; T-24, read-out: S1P3 (% eff.)): 55%

**Q.** For `CC(C)c1c(C(=O)NCc2cc(F)cc(F)c2)c2cc(O)ccc2n1Cc1ccccc1` [Compound 33, 1-Benzyl-5-hydroxy-2-isopropyl-1H-indole-3-carboxylic Acid, 3,5-difluorobenzylamide], which IC50 (human S1P3 receptor) is on record?
**A.** 110 nM

**Q.** What about the Emax (human S1P3 receptor; T-24, read-out: S1P3 (% eff.)) of the same compound?
**A.** 99%

**Q.** Which IC50 (human S1P3 receptor) does the source give for `Cc1c(C(=O)NCc2cc(F)cc(F)c2)c2cc(O)ccc2n1Cc1ccco1` [Compound 12, 1-Furan-2-ylmethyl-5-hydroxy-2-methyl-1H-indole-3-carboxylic Acid 3,5-Difluorobenzylamide] here?
**A.** 950 nM

**Q.** And the Emax (human S1P3 receptor; T-24, read-out: S1P3 (% eff.))?
**A.** 77%

**Q.** Which IC50 (human S1P3 receptor) does the source give for `COc1ccccc1CNC(=O)c1c(C)n(Cc2cccs2)c2ccc(O)cc12` [Compound 23, 5-Hydroxy-2-methyl-1-thiophen-2-ylmethyl-1H-indole-3-carboxylic Acid, 2-methoxybenzylamide] here?
**A.** 2400 nM

**Q.** What about the Emax (human S1P3 receptor; T-24, read-out: S1P3 (% eff.)) of the same compound?
**A.** 23%

**Q.** For `Cc1c(C(=O)NCc2ccccc2)c2cc(O)ccc2n1Cc1cccs1` [Compound 15, 5-Hydroxy-2-methyl-1-thiophen-2-ylmethyl-1H-indole-3-carboxylic Acid, Benzylamide], which IC50 (human S1P3 receptor) is on record?
**A.** 1600 nM

**Q.** What about the Emax (human S1P3 receptor; T-24, read-out: S1P3 (% eff.)) of the same compound?
**A.** 48%

**Q.** Which results are given for `CCc1c(C(=O)NCc2ccc(F)c(F)c2)c2cc(O)ccc2n1Cc1ccccc1` [Compound 25, 1-Benzyl-2-ethyl-5-hydroxy-1H-indole-3-carboxylic Acid, 3,4-Difluoro-benzylamide]?
**A.** IC50 (human S1P3 receptor): 700 nM; Emax (human S1P3 receptor; T-24, read-out: S1P3 (% eff.)): 98%

**Q.** What does the source list for `Cc1c(C(=O)NCc2cccc(F)c2)c2cc(O)ccc2n1Cc1cccs1` [Compound 14, 5-Hydroxy-2-methyl-1-thiophen-2-ylmethyl-1H-indole-3-carboxylic Acid, 3-Fluorobenzylamide]?
**A.** IC50 (human S1P3 receptor): 3200 nM; Emax (human S1P3 receptor; T-24, read-out: S1P3 (% eff.)): 85%

**Q.** Which results are given for `CCc1c(C(=O)NCc2cc(F)cc(F)c2)c2cc(O)ccc2n1Cc1ccccc1` [Compound 32, 1-Benzyl-2-ethyl-5-hydroxy-1H-indole-3-carboxylic Acid 3,5-Difluoro-benzylamide]?
**A.** IC50 (human S1P3 receptor): 280 nM; Emax (human S1P3 receptor; T-24, read-out: S1P3 (% eff.)): 97%

**Q.** Which IC50 (human S1P3 receptor; [1]) does the source give for `Cc1c(C(=O)NCc2ccc(F)c(F)c2)c2cc(O)ccc2n1-c1cccs1` [Compound 31, 5-Hydroxy-2-methyl-1-thiophen-2-yl-1H-indole-3-carboxylic Acid 3,4-Difluorobenzylamide] here?
**A.** 2500 nM

**Q.** What about the Emax (human S1P3 receptor; [2]) of the same compound?
**A.** 81%
